# Data published in ChEMBL document CHEMBL5050844 (2019).
# Assays:
# [1] = Induction of allogenic human T cell activation at 3 uM assessed fold increase in cell proliferation; type: functional, T cell line
# [2] = Induction of anti-CD3 antibodies-stimulated human T cell activation at 10 uM assessed fold increase in GM-CSF secretion measured by ELISA assay; type: functional, T cell line; also: reference of the scale not given here
# [3] = Induction of anti-CD3 antibodies-stimulated human T cell activation at 1.11 uM assessed fold increase in IFN-gamma secretion measured by ELISA assay; type: functional, T cell line; also: reference of the scale not given here
# [4] = Induction of anti-CD3 antibodies-stimulated human CD4+ T cell activation at 10 uM assessed fold increase in CD69 expression measured by flow cytometry analysis; type: functional, T cell line; also: reference of the scale not given here
# [5] = Induction of anti-CD3/CD28 antibodies-stimulated human T cell activation at 4 uM assessed fold increase in CD25 expression measured by ELISA assay; type: functional, T cell line
# [6] = Induction of anti-CD3/CD28 antibodies-stimulated human T cell activation at 1.11 uM assessed fold increase in IFN-gamma secretion measured by ELISA assay; type: functional, T cell line
# [7] = Induction of anti-CD3 antibodies-stimulated human T cell activation at 8 uM assessed fold increase in IL-2 secretion measured by ELISA assay; type: functional, T cell line; also: reference of the scale not given here
# [8] = Induction of anti-CD3 antibodies-stimulated human T cell activation at 1 uM assessed fold increase in CD25 expression measured by ELISA assay; type: functional, T cell line; also: reference of the scale not given here
# [9] = Induction of anti-CD3/CD28 antibodies-stimulated human T cell activation at 0.3 uM assessed fold increase in IL-2 secretion measured by ELISA assay; type: functional, T cell line
# [10] = Induction of anti-CD3 antibodies-stimulated human exhausted T cell activation assessed fold increase in IFN-gamma secretion measured by ELISA assay; type: functional, T cell line; also: reference of the scale not given here
# [11] = Induction of anti-CD3/CD28 antibodies-stimulated human T cell activation at 1.11 uM assessed fold increase in GM-CSF secretion measured by ELISA assay; type: functional, T cell line
# [12] = Induction of anti-CD3/CD28 antibodies-stimulated human anergic T cell activation at 0.37 uM assessed fold increase in IFN-gamma secretion measured by ELISA assay; type: functional, T cell line
# [13] = Induction of anti-CD3/CD28 antibodies-stimulated human T cell activation at 4 uM assessed fold increase in IL-2 secretion measured by ELISA assay; type: functional, T cell line
# [14] = Induction of anti-CD3/CD28 antibodies-stimulated human T cell activation at 1.11 uM assessed fold increase in TNF-alpha secretion measured by ELISA assay; type: functional, T cell line
# B cell = experiment: Induction of anti-IgM-stimulated human CD20+ B cell activation at 10 to 1000 uM assessed as increase in CD69 expression measured as mean fluorescence intensity AUC by flow cytometry analysis; type: functional, cell-based; conditions: dose 10-1000 µM
# [15] = Induction of anti-CD3/CD28 antibodies-stimulated human T cell activation at 10 uM assessed fold increase in TNF-alpha secretion measured by ELISA assay; type: functional, T cell line
# [16] = Induction of anti-CD3 antibodies-stimulated human CD8+ T cell activation at 1.11 uM assessed fold increase in cell proliferation measured by flow cytometry analysis; type: functional, T cell line; also: reference of the scale not given here
# [17] = Induction of anti-CD3 antibodies-stimulated human CD4+ T cell activation at 1.11 uM assessed fold increase in CD69 expression measured by flow cytometry analysis; type: functional, T cell line; also: reference of the scale not given here
# [18] = Induction of anti-CD3/CD28 antibodies-stimulated human CD4+ T cell activation at 10 uM assessed fold increase in cell proliferation measured by flow cytometry analysis; type: functional, T cell line
# [19] = Induction of anti-CD3/CD28 antibodies-stimulated human CD8+ T cell activation at 1.11 uM assessed fold increase in cell proliferation measured by flow cytometry analysis; type: functional, T cell line
# [20] = Induction of anti-CD3 antibodies-stimulated human exhausted T cell activation assessed fold increase in GM-CSF secretion measured by ELISA assay; type: functional, T cell line; also: reference of the scale not given here
# [21] = Induction of anti-CD3/CD28 antibodies-stimulated human CD4+ T cell activation at 1.11 uM assessed fold increase in CD69 expression measured by flow cytometry analysis; type: functional, T cell line
# [22] = Induction of anti-CD3/CD28 antibodies-stimulated human T cell activation at 1 uM assessed fold increase in CD25 expression measured by ELISA assay; type: functional, T cell line
# [23] = Induction of anti-CD3/CD28 antibodies-stimulated human CD8+ T cell activation at 10 uM assessed fold increase in CD69 expression measured by flow cytometry analysis; type: functional, T cell line
# [24] = Induction of anti-CD3 antibodies-stimulated human CD8+ T cell activation at 10 uM assessed fold increase in cell proliferation measured by flow cytometry analysis; type: functional, T cell line; also: reference of the scale not given here
# [25] = Induction of anti-CD3 antibodies-stimulated human T cell activation at 10 uM assessed fold increase in TNF-alpha secretion measured by ELISA assay; type: functional, T cell line; also: reference of the scale not given here
# [26] = Induction of anti-CD3 antibodies-stimulated human exhausted CD4+ T cell activation assessed fold increase in CTLA4 expression measured by flow cytometry analysis; type: functional, T cell line; also: reference of the scale not given here
# [27] = Induction of anti-CD3/CD28 antibodies-stimulated human CD8+ T cell activation at 10 uM assessed fold increase in cell proliferation measured by flow cytometry analysis; type: functional, T cell line
# [28] = Induction of activation of human CD56+ CD3- NK cells co-cultured with human K562 cells in 1:1 ratio and assessed as increase in TNF-alpha secretion at 0.625 uM measured by ELISA assay; type: functional, Natural killer cell
# [29] = Induction of allogenic human T cell activation at 10 uM assessed fold increase in cell proliferation; type: functional, T cell line
# [30] = Induction of activation of human CD56+ CD3- NK cells co-cultured with human K562 cells in 1:1 ratio and assessed as increase in IFN-gamma secretion at 2.5 uM measured by ELISA assay; type: functional, Natural killer cell
# [31] = Induction of anti-CD3/CD28 antibodies-stimulated human anergic T cell activation at 1.11 uM assessed fold increase in IFN-gamma secretion measured by ELISA assay; type: functional, T cell line
# [32] = Induction of anti-CD3/CD28 antibodies-stimulated human T cell activation at 10 uM assessed fold increase in IFN-gamma secretion measured by ELISA assay; type: functional, T cell line
# [33] = Induction of anti-CD3 antibodies-stimulated human T cell activation at 1 uM assessed fold increase in IL-2 secretion measured by ELISA assay; type: functional, T cell line; also: reference of the scale not given here
# [34] = Induction of activation of human CD56+ CD3- NK cells co-cultured with human K562 cells in 1:1 ratio and assessed as increase in TNF-alpha secretion at 10 uM measured by ELISA assay; type: functional, Natural killer cell
# [35] = Induction of activation of human CD56+ CD3- NK cells co-cultured with human K562 cells in 1:1 ratio and assessed as increase in IFN-gamma secretion at 10 uM measured by ELISA assay; type: functional, Natural killer cell
# [36] = Induction of anti-CD3/CD28 antibodies-stimulated human T cell activation at 10 uM assessed fold increase in GM-CSF secretion measured by ELISA assay; type: functional, T cell line
# [37] = Induction of activation of human CD56+ CD3- NK cells co-cultured with human K562 cells in 1:1 ratio and assessed as increase in TNF-alpha secretion at 2.5 uM measured by ELISA assay; type: functional, Natural killer cell
smiles,measurement,setting,value
C[C@H](Cc1nncn1C)c1cccc(N2Cc3c(cccc3C(F)(F)F)C2=O)c1.Cl,fold change (FC),[1],<=2
same,fold change (FC),[2],<=1.5
same,fold change (FC),[3],<=2
same,fold change (FC),[4],<=1.2
same,fold change (FC),[5],>=1.76
same,fold change (FC),[6],3.01
same,fold change (FC),[7],>=0.201
same,fold change (FC),[8],0.601
same,fold change (FC),[9],1.01
same,fold change (FC),[10],<=1.4
same,fold change (FC),[11],<=1.5
same,fold change (FC),[12],<=2.5
same,fold change (FC),[13],5
same,fold change (FC),[14],<=1.5
same,AUC,B cell,1.01
same,fold change (FC),[15],1.51
same,fold change (FC),[16],<=2
same,fold change (FC),[17],<=1.2
same,fold change (FC),[18],3.01
same,fold change (FC),[19],<=2
same,fold change (FC),[20],<=1.4
same,fold change (FC),[21],<=1.2
same,fold change (FC),[22],1.51
same,fold change (FC),[23],1.201
same,fold change (FC),[24],<=2
same,fold change (FC),[25],<=1.5
same,fold change (FC),[26],1.41
same,fold change (FC),[27],2.01
same,fold change (FC),[28],1.01
same,fold change (FC),[29],<=2
same,fold change (FC),[30],1.01
same,fold change (FC),[31],2.51
same,fold change (FC),[32],>4
same,fold change (FC),[33],0.051
same,fold change (FC),[34],<=1
same,fold change (FC),[35],2.01
same,fold change (FC),[36],1.51
same,fold change (FC),[37],1.01
Cn1cnnc1CC1(c2cccc(N3Cc4c(cc(CN5CC(F)C5)cc4C(F)(F)F)C3=O)c2)COC1,fold change (FC),[1],2.01
same,fold change (FC),[2],>4
same,fold change (FC),[3],2.01
same,fold change (FC),[4],>1.601
same,fold change (FC),[5],1.51
same,fold change (FC),[6],3.01
same,fold change (FC),[7],>=0.201
same,fold change (FC),[8],>=1.001
same,fold change (FC),[9],5
same,fold change (FC),[10],>1.61
same,fold change (FC),[11],2.01
same,fold change (FC),[12],2.51
same,fold change (FC),[13],>=7.5
same,fold change (FC),[14],2.01
same,AUC,B cell,1.01
same,fold change (FC),[15],2.01
same,fold change (FC),[16],>4
same,fold change (FC),[17],>1.601
same,fold change (FC),[18],>4
same,fold change (FC),[19],3.01
same,fold change (FC),[20],>1.61
same,fold change (FC),[21],1.201
same,fold change (FC),[22],1.31
same,fold change (FC),[23],1.201
same,fold change (FC),[24],>4
same,fold change (FC),[25],1.51
same,fold change (FC),[26],>1.61
same,fold change (FC),[27],>4
same,fold change (FC),[28],1.01
same,fold change (FC),[29],>3
same,fold change (FC),[30],2.01
same,fold change (FC),[31],2.51
same,fold change (FC),[32],>4
same,fold change (FC),[33],0.151
same,fold change (FC),[34],2.01
same,fold change (FC),[35],>=5
same,fold change (FC),[36],>4
same,fold change (FC),[37],2.01
Cn1cnnc1CC1(c2cccc(NC(=O)c3nc4c(C(F)(F)F)cccc4[nH]3)c2)COC1,fold change (FC),[1],<=2
same,fold change (FC),[2],2.01
same,fold change (FC),[3],<=2
same,fold change (FC),[4],>1.601
same,fold change (FC),[5],1.51
same,fold change (FC),[6],>4
same,fold change (FC),[7],>=0.201
same,fold change (FC),[8],0.801
same,fold change (FC),[9],2.51
same,fold change (FC),[10],1.41
same,fold change (FC),[11],1.51
same,fold change (FC),[12],<=2.5
same,fold change (FC),[13],>=7.5
same,fold change (FC),[14],1.51
same,AUC,B cell,0.5
same,fold change (FC),[15],2.01
same,fold change (FC),[16],>4
same,fold change (FC),[17],>1.601
same,fold change (FC),[18],>4
same,fold change (FC),[19],3.01
same,fold change (FC),[20],<=1.4
same,fold change (FC),[21],1.401
same,fold change (FC),[22],1.51
same,fold change (FC),[23],1.201
same,fold change (FC),[24],>4
same,fold change (FC),[25],1.51
same,fold change (FC),[26],>1.61
same,fold change (FC),[27],3.01
same,fold change (FC),[28],1.01
same,fold change (FC),[29],<=2
same,fold change (FC),[30],1.01
same,fold change (FC),[31],2.51
same,fold change (FC),[32],2.01
same,fold change (FC),[33],0.101
same,fold change (FC),[34],2.01
same,fold change (FC),[35],2.01
same,fold change (FC),[36],>4
same,fold change (FC),[37],1.01
